Results taken from patent US20150133434A1, “Compositions and Methods for Reactivating Latent Immunodeficiency Virus” (priority 2012, published 2015).

Columns and labels:
[1] = system: latent HIV (clone R7/E-/GFP) in Jurkat T cells; assay: Reactivation of latent HIV in polyclonal Jurkat T cells (clone R7/E-/GFP), flow cytometry of GFP; assay type: cell-based, HIV-1
Experimental: A polyclonal population of Jurkat T cells containing latent HIV (clone R7/E-/GFP) was treated with increasing amounts of JQ1. This viral clone contains a frameshift mutation in the viral Env gene to prevent viral spread and expresses GFP in the Nef open reading frame, which allows separation of actively infected GFP^+ from GFP^− cells by cell sorting. GFP^− cells, which are mostly uninfected but contain a small fraction of latently infected cells with silenced HIV transcription, were treated with JQ1. Activation of transcription was measured by flow cytometry of GFP. […] Stimulation of cells with JQ1 produced up to fivefold more GFP-expressing cells than control-treated cells.
HIV clones R7/E-/GFP and NL4-3/E-/GFP-IRES-nef were derived from pR7-GFP and pNLENG1-EGFP by mutating the Env gene by inserting an early stop codon in the NdeI site. […]. Jurkat cells were spininfected with 25 ng of p24 per 10^6 cells, and GFP^− cells where collected in two rounds of cell sorting 5 and 15 days after infection. The expanded population of GFP^− cells, composed of uninfected and latently infected cells, was seeded in 96-well plates and treated with the indicated concentration of drugs in duplicates. The percentage of GFP^+ cells was detected after 24 h at the MACSQuant VYB FACS analyzer. Data are expressed as the mean percentage of GFP^+ cells, subtracting the average percentage of spontaneous GFP-reactivation in the untreated samples. (A) Jurkat cells containing latent R7/E-/GFP virus were treated with JQ1 or (R)-JQ1 in combination with Prostratin (0.5 μM), SAHA (2.5 μM), TNFα (1 ng/μl), or control at the indicated concentrations for 18 h, followed by flow cytometry analysis. […] Results represent average of two independent experiments. All treatments in (A) and (B) on the X axis are in μM.

[2] = system: latent HIV-1 in Bcl-2-transduced resting CD4+ T cells; assay type: cell-based; conditions: 24-72 h, average of two donors
[3] = system: HIV LTR-GFP in J-Lat A72 cells; assay: JQ1 response in A72 cells after shRNA knockdown (cyclin T1, BRD2, BRD4), flow cytometry of GFP; assay type: cell-based
Experimental: ShRNA-expressing lentiviral vectors were purchased from Open Biosystems. The plasmids TRCN0000006308 and TRCN0000006310 were used to deplete BRD2, plasmids TRCN0000021424 and TRCN0000021428 were used to deplete BRD4, and plasmids TRCN0000013673 and TRCN0000013675 were used to deplete cyclin T1. The pLKO.1 vector containing scramble shRNA was used as control. […]. J-Lat A72 cells (containing a LTR-GFP construct) were spininfected with virus (1 ng of p24 per 10^6 cells) containing shRNAs against BRD2, BRD4, cyclin T1 or nontargeting control shRNAs and were selected with puromycin (2 μg/ml; Sigma) (Naldini L, et al., Science 1996; 272:263-7). After 4 days of selection, cells were treated with the indicated concentration of drugs. The percentage of GFP^+ cells was determined after 18 h using a MACSQuant VYB FACS analyzer (Miltenyi Biotech GmbH). Cell viability was monitored by forward and side scatter analysis. Analysis was conducted on 3×10,000 live cells per condition, and all experiments were independently repeated at least three times. Data were analyzed using FlowJo 9.4 (Tree Star).
As transcription elongation at the HIV promoter uniquely depends on P-TEFb, whether the JQ1 effect in latent cells requires intact P-TEFb was determined. Short hairpin RNAs (shRNAs) directed against cyclin T1, an important component of P-TEFb, were introduced into A72 cells with lentiviral vectors. Knockdown of cyclin T1 yielded lower basal levels in GFP^+ cells than control cells expressing nontargeting shRNAs (FIG. 25A).
To test the functional relevance of BET proteins in HIV latency, lentiviral shRNA knockdown studies of endogenous BRD2 and BRD4 proteins were performed in A72 cells lacking Tat. BRD2 is a close relative of BRD4, but lacks a C-terminal PID domain. […] BRD2 binds JQ1 and other BET inhibitors, albeit with lower binding affinities than BRD4.
(A) A72 cells were infected with virus containing shRNA constructs targeting cyclin T1 or a nontargeting control. Knockdown of cyclin T1 protein levels are shown by immunoblotting with cyclin T1 or the control α-tubulin antibody. At 4 days after infection, cells were treated with JQ1 or DMSO at the indicated concentrations for 18 h and analyzed by flow cytometry. […] Average (±SD) of three experiments is shown. (B) A72 cells were infected with virus containing shRNA constructs targeting BRD2, BRD4 or a nontargeting control. At 4 days after infection, cells were treated with JQ1 or DMSO at the indicated concentrations for 18 h and examined by flow cytometry. […] Results represent average (±SD) of three experiments. Knockdown of BRD2 and BRD4 protein levels were confirmed by immunoblotting with BRD2 and BRD4 antibodies or the control α-tubulin. All treatments in (A) and (B) on the X axis are in μM.

Compound: Cc1sc2c(c1C)C(c1ccc(Cl)cc1)=N[C@@H](CC(=O)OC(C)(C)C)c1nnc(C)n1-2 [JQ1, tert-Butyl 2-((6S)-4-(4-chlorophenyl)-2,3,9-trimethyl-6H-thieno[3,2-f][1,2,4]triazolo[4,3-a][1,4]diazepin-6-yl)acetate]
- GFP-expressing cells relative to control-treated cells ([1]; JQ1 alone): up to fivefold
- effect of adding JQ1 with SAHA ([1]; co-treatment with SAHA 2.5 μM, FIG. 20A, B (both viral clones)): no additive or synergistic effects
- effect of co-treatment with TNFα on the JQ1 effect ([1]; co-treatment with TNFα, FIG. 20A, B (both viral clones)): very modest enhancement
- effect of adding JQ1 with prostratin ([1]; co-treatment with prostratin 0.5 μM, FIG. 20A, B (both viral clones)): Enhanced activation
- reactivation of HIV-1 (GFP+ cells) ([1]; compound alone, increasing amounts): reactivated HIV-1 in a dose-dependent manner
- reactivation of latent HIV-1 relative to costimulation with αCD3 and αCD28 antibodies [2]: ~14%
- activation of the HIV LTR in response to JQ1 ([3]; BRD2 knockdown cells): twofold
- response to JQ1 ([3]; BRD4 knockdown cells): not affected
- activation of the HIV LTR in response to JQ1 ([3]; control cells (nontargeting shRNA)): 3.3 fold
- cells responding with GFP expression to JQ1, relative to control cells ([3]; cyclin T1 knockdown cells): half as many cells responded
